Results from patent US20040171566A1, “Antisense modulation of p38 mitogen activated protein kinase expression” (priority 1999, published 2004).
In the oligonucleotide strings, read from the 5' end, every base follows the letter of its sugar. An asterisk marks phosphorothioate; unmarked linkages are phosphodiester. Other units and linkages are bracketed, terminal groups are in braces. A string of capitals states the bases alone. e = 2'-O-(2-methoxyethyl) (MOE); [5mC] = 5-methylcytosine; d = 2'-deoxy (DNA)

What was measured:
human p38β mRNA = experiment: Human p38β mRNA expression in T-24 cells; details: for % P38β mRNA EXPRESSION: initial screen of human p38α oligonucleotides
human p38α mRNA = experiment: Human p38α mRNA expression in T-24 cells; details: for % P38α mRNA EXPRESSION: initial screen of human p38α oligonucleotides
mouse p38α mRNA = experiment: Mouse p38α mRNA levels in bEND.3 cells, quantitative real-time PCR; type: cell-based; design: % Inhib. mouse p38α: concentration or dose not given beside the values; details: bEND.3 cells, mRNA by quantitative real-time PCR, average of two experiments
In short: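 Mouse bEND.3 cells, antisense oligonucleotide-treated; p38α mRNA measured by one-step real-time RT-PCR (RT 30 min at 48 °C, then 40 cycles) with a FAM/TAMRA probe. Levels normalized to GAPDH or RiboGreen total RNA, and percent inhibition derived from standard curves of untreated-control mRNA.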

rat p38α mRNA = experiment: Rat p38α mRNA levels in NR-8383 cells, quantitative real-time PCR; type: cell-based; details: 300 nM oligonucleotide with FuGENE 6, 24 hours, mRNA by quantitative real-time PCR, average of two experiments
[1] = dose 50 nM, relative to control oligonucleotide = 100%
[2] = dose 100 nM, relative to control oligonucleotide = 100%
[3] = dose 200 nM, relative to control oligonucleotide = 100%
[4] = initial screen of human p38β oligonucleotides

| Sequence | % p38β mRNA Expression (human p38β mRNA; [4]) | % p38α mRNA EXPRESSION (human p38α mRNA; [4]) | % P38β mRNA EXPRESSION (human p38β mRNA) | % P38α mRNA EXPRESSION (human p38α mRNA) | other results |
| --- | --- | --- | --- | --- | --- |
| CAGGAATTGAACGTGCTCGT (antisense e[5mC]eAeGeGeA*dA*dT*dT*dG*dA*dA*d[5mC]*dG*dT*dG*e[5mC]eTe[5mC]eGeT) [ISIS 107873] | 58% | 120% | – | – | % p38β mRNA Expression (human p38β mRNA; [1]): 69%; % p38β mRNA Expression (human p38β mRNA; [2]): 41%; % p38β mRNA Expression (human p38β mRNA; [3]): 23% |
| TACCAGCGCGTGGCCACATA (antisense eTeAe[5mC]e[5mC]eA*dG*d[5mC]*dG*d[5mC]*dG*dT*dG*dG*d[5mC]*d[5mC]*eAe[5mC]eAeTeA) [ISIS 107875] | 92% | 112% | – | – | % p38β mRNA Expression (human p38β mRNA; [1]): 82%; % p38β mRNA Expression (human p38β mRNA; [2]): 38%; % p38β mRNA Expression (human p38β mRNA; [3]): 40% |
| CACCGCCACCTTCTGGCGCA (antisense e[5mC]eAe[5mC]e[5mC]eG*d[5mC]*d[5mC]*dA*d[5mC]*d[5mC]*dT*dT*d[5mC]*dT*dG*eGe[5mC]eGe[5mC]eA) [ISIS 107870] | 74% | 97% | – | – | – |
| ATGGACGTGGCCGGCGTGAA (antisense eAeTeGeGeA*d[5mC]*dG*dT*dG*dG*d[5mC]*d[5mC]*dG*dG*d[5mC]*eGeTeGeAeA) [ISIS 107872] | 57% | 123% | – | – | % p38β mRNA Expression (human p38β mRNA; [1]): 71%; % p38β mRNA Expression (human p38β mRNA; [2]): 13%; % p38β mRNA Expression (human p38β mRNA; [3]): 22% |
| CACGTAGCCTGTCATTTCAT (chimeric deoxy gapped, phosphorothioate, further chemistry not given here) [ISIS 100868] | – | – | 60% | 47% | – |
| GCAACAAGAGGCACTTGAAT (eG*e[5mC]*eA*eA*e[5mC]*dA*dA*dG*dA*dG*dG*d[5mC]*dA*d[5mC]*dT*eT*eG*eA*eA*eT; antisense) [ISIS 100877] | – | – | 95% | 47% | – |
| AGGTGCTCAGGACTCCATCT (chimeric deoxy gapped, phosphorothioate, further chemistry not given here) [ISIS 100876] | – | – | 93% | 77% | – |
| ACAGACGGAGCCGTAGGCGC (antisense eAe[5mC]eAeGeA*d[5mC]*dG*dG*dA*dG*d[5mC]*d[5mC]*dG*dT*dA*eGeGe[5mC]eGe[5mC]) [ISIS 107869] | 60% | 93% | – | – | – |
| TTCTCTTATCTGAGTCCAAT (chimeric deoxy gapped, phosphorothioate, further chemistry not given here) [ISIS 100872] | – | – | 77% | 37% | % p38α mRNA EXPRESSION (human p38α mRNA; dose 50 nM): 45%; % p38α mRNA EXPRESSION (human p38α mRNA; dose 100 nM): 18%; % p38α mRNA EXPRESSION (human p38α mRNA; dose 200 nM): 17% |
| ACGTTGCTGGGCTTCAGGTC (antisense eAe[5mC]eGeTeT*dG*d[5mC]*dT*dG*dG*dG*d[5mC]*dT*dT*d[5mC]*eAeGeGeTe[5mC]) [ISIS 107874] | 61% | 100% | – | – | % p38β mRNA Expression (human p38β mRNA; [1]): 75%; % p38β mRNA Expression (human p38β mRNA; [2]): 34%; % p38β mRNA Expression (human p38β mRNA; [3]): 23% |
| CATCATCAGGATCGTGGTAC (chimeric deoxy gapped, phosphorothioate, further chemistry not given here) [ISIS 100873] | – | – | 70% | 34% | % p38α mRNA EXPRESSION (human p38α mRNA; dose 50 nM): 19%; % p38α mRNA EXPRESSION (human p38α mRNA; dose 100 nM): 12%; % p38α mRNA EXPRESSION (human p38α mRNA; dose 200 nM): 8% |
| AGCTTCTTCACTGCCACACG (phosphorothioate gapmer, further chemistry not given here) [ISIS 100862] | – | – | 45% | 56% | – |
| CATCCCACTGACCAAATATC (chimeric deoxy gapped, phosphorothioate, further chemistry not given here) [ISIS 100869] | – | – | 100% | 61% | – |
| AATGATGGACTGAAATGGTC (eA*eA*eT*eG*eA*dT*dG*dG*dA*d[5mC]*dT*dG*dA*dA*dA*eT*eG*eG*eT*e[5mC]; antisense) [ISIS 100863] | – | – | 67% | 49% | – |
| TCAAAGGACTGATCATAAGG (eT*e[5mC]*eA*eA*eA*dG*dG*dA*d[5mC]*dT*dG*dA*dT*d[5mC]*dA*eT*eA*eA*eG*eG; antisense) [ISIS 100874] | – | – | 76% | 42% | % p38α mRNA EXPRESSION (human p38α mRNA; dose 50 nM): 47%; % p38α mRNA EXPRESSION (human p38α mRNA; dose 100 nM): 27%; % p38α mRNA EXPRESSION (human p38α mRNA; dose 200 nM): 13% |
| CTCACAGTCTTCATTCACAG (chimeric deoxy gapped, phosphorothioate, further chemistry not given here) [ISIS 100867] | – | – | 33% | 58% | – |
| ACGCTCGGGCACCTCCCAGA (phosphorothioate gapmer, further chemistry not given here) [ISIS 100861] | – | – | 47% | 60% | – |
| TCCAACAGACCAATCACATT (phosphorothioate gapmer, further chemistry not given here) [ISIS 100864] | – | – | 70% | 66% | % Inhib. mouse p38α (mouse p38α mRNA): 83%; % Inhib. rat p38α (rat p38α mRNA): 57% |
| GGCACAAAGCTGATGACTTC (chimeric deoxy gapped, phosphorothioate, further chemistry not given here) [ISIS 100875] | – | – | 90% | 39% | % p38α mRNA EXPRESSION (human p38α mRNA; dose 50 nM): 30%; % p38α mRNA EXPRESSION (human p38α mRNA; dose 100 nM): 13%; % p38α mRNA EXPRESSION (human p38α mRNA; dose 200 nM): 8% |
| TGTAAGCTTCTGACATTTCA (phosphorothioate gapmer, further chemistry not given here) [ISIS 100865] | – | – | 63% | 64% | – |
| CAGTTGAGCATGATCTCAGG (antisense e[5mC]eAeGeTeT*dG*dA*dG*d[5mC]*dA*dT*dG*dA*dT*d[5mC]*eTe[5mC]eAeGeG) [ISIS 107876] | 127% | 137% | – | – | – |
| GTACGTTCTGCGCGCGTGGA (antisense eGeTeAe[5mC]eG*dT*dT*d[5mC]*dT*dG*d[5mC]*dG*d[5mC]*dG*d[5mC]*eGeTeGeGeA) [ISIS 107871] | 60% | 111% | – | – | % p38β mRNA Expression (human p38β mRNA; [1]): 41%; % p38β mRNA Expression (human p38β mRNA; [2]): 42%; % p38β mRNA Expression (human p38β mRNA; [3]): 10% |
| TGAATGTATATACTTTAGAC (eT*eG*eA*eA*eT*dG*dT*dA*dT*dA*dT*dA*d[5mC]*dT*dT*eT*eA*eG*eA*e[5mC]; antisense) [ISIS 100866] | – | – | 65% | 55% | – |
| CTGAGACATTTTCCAGCGGC (phosphorothioate gapmer, further chemistry not given here) [ISIS 100860] | – | – | 71% | 73% | – |
| TGCCCTGGAGCAGCTCAGCC (antisense eTeGe[5mC]e[5mC]e[5mC]*dT*dG*dG*dA*dG*d[5mC]*dA*dG*d[5mC]*dT*e[5mC]eAeGe[5mC]e[5mC]) [ISIS 107878] | 54% | 112% | – | – | % p38β mRNA Expression (human p38β mRNA; [1]): 70%; % p38β mRNA Expression (human p38β mRNA; [2]): 43%; % p38β mRNA Expression (human p38β mRNA; [3]): 27% |
| AGTCAAAGACTGAATATAGT (eA*eG*eT*e[5mC]*eA*dA*dA*dG*dA*d[5mC]*dT*dG*dA*dA*dT*eA*eT*eA*eG*eT; antisense) [ISIS 100871] | – | – | 96% | 57% | – |
